# In patent publication US20160129005A1, “ADENINE DERIVATIVES HAVING IMMUNOMODULATING ANTI-INFLAMMATORY AND ANALGESIC ACTIVITY” (MEDESTEA RESEARCH & PRODUCTION S.p.A., priority 2011, published 2016):
# Several values for one entry are separate records, joined by “and”; a condition that tells them apart may be missing. Equal values may be shown once.
# Key:
# mice = test: COPD: chronic smoke exposure (6 months), lung morphometry and histology; format: in vivo, mouse; settings: smoke 6 months, 4 mg/kg i.p. before daily exposure
# Method: The activity of […] was also tested in a model of chronic exposure, which is closer to the aetiology of the human disorder. The mice were exposed to the smoke of 3 cigarettes a day or air for 5 days a week for 6 months, and were treated 30 minutes before the daily exposure with […] 4 mg/kg i.p.
# At the end of the 6 months, the mice were sacrificed and a morphometric and histologic examination was conducted on the lung tissue.
# The mean interalveolar distance (Lm) and mean internal surface area of the lung (ISA) were measured, being parameters that are correlated with degeneration of lung tissue and with the resultant decrease in respiratory function.
# [1] = test system: C57BL/6 mice transplanted with BALB/c hearts; test: Murine heterotopic heart transplant model; format: in vivo, mouse
# Method: The immunosuppressive potential of […] was tested on a heterotopic heart transplant model; hearts of BALB/c mice were transplanted into the abdominal cavity of C57BL/6 mice.
# The beats of the heart were measured, twice weekly, by palpation; stopping of beating was regarded as a sign of transplant rejection.
# Three different protocols were used for prolonging transplant survival times: the “short-term” protocol ([…] 9 mg/kg daily for 14 days), the “long-term” protocol ([…] 9 mg/kg every day until rejection), and the “Combo” protocol ([…] on alternate days: day 0, 2, 4, 6, 8, 10, 12, 14+Rapamycin 0.1 mg/kg from day 0 to day 10).
# In the acute heart transplant models, the hearts of BALB/c were transplanted into the peritoneal cavity of C57BL/6 mice. The control mice invariably reject the transplant in 10 days (Ctrl: MST=7 days, n=12), (FIG. 26). The “short-term” protocol permitted indefinite survival (100 days) in 10 mice out of 12 (n=12; p=0.0001 vs. Ctrl), (FIG. 26). Similarly, the “long-term” protocol permitted indefinite survival in 8 mice out of 10 (n=10; p=0.002 vs Ctrl), and prolonged survival in the remaining 2 (16 days and 25 days; p=0.002 vs. Ctrl), (FIG. 26).
# The histological sections of the hearts on day 7 of BALB/c mice, transplanted into a C57BL/6 host, and treated with the “short-term” protocol, were also analysed.
# male Fischer inbred rats = test: Model of arthritis: complete Freund adjuvant paw inflammation, plantar test (Hargreaves); format: in vivo, rat
# Method: […] was tested for possible antinociceptive and anti-inflammatory activity in a murine model of arthritis.
# Unilateral inflammation of the posterior plantar pad of the rat (male Fischer inbred rats) was induced with a local injection of complete Freund adjuvant.
# […], 4 mg/kg, was administered intraperitoneally.
# The rats were put in a transparent plastic chamber and were left to acclimatize for 5 minutes before the test.
# Thermal stimulus, applied to the surface of the plantar pads of the rats, was produced by a halogen lamp (64607 OSRAM) of 8 V-50 W, through the plastic box; the diameter of the radiant beam measured about 12 mm. The time for withdrawal of the animal's right plantar pad was measured before and after injection of […].
# A comparison was conducted on the anti-hyperalgesic and anti-inflammatory effect of a cortisone derivative, methylprednisolone acetate, administered intraperitoneally (5 mg/kg).
# mdx mice = test: Muscular dystrophy model; format: in vivo, mouse
# Text: The mdx mouse is characterized by a nonsense mutation in the dystrophin gene and constitutes an experimental model of DMD. The muscle of mdx is histologically normal in early postnatal development, but goes towards necrosis starting from the third week of life. The mdx mice show high levels of creatine kinase (CK) in the serum and accumulation of inflammatory cells, both markers of muscular degeneration. To assess the effect of […] in the progression of dystrophy and of inflammation in DMD, we treated mdx mice (n=10) at 4 weeks of age (in accordance with the recent SOPs for preclinical drug trials in mdx) with […] (0.25 mg/mouse) intraperitoneally every day for two weeks. The same number of mice of the same age was treated with the vehicle as control. After two weeks of treatment with […], the CK levels had decreased by 70% (P<0.05) (FIG. 33).
# Cross sections of anterior tibial muscles stained with haematoxylin/eosin were quantified in duplicate in blind conditions with ImageJ software. In the same sections we also assessed centralization of the nucleus, degeneration of muscle fibres and their regeneration. […] The values obtained for the mice treated with […] were similar to those obtained for the control mice of the same age and genotype but without mutation in the dystrophin gene.
# To assess the effect of […] on the inflammatory infiltrate in the muscle of mdx mice, the muscle sections were decorated with anti-CD3 antibodies (T cells). This analysis detected a 40% decrease in the number of cells positive for CD3.
# Tg2576 mice = test: Alzheimer's transgenic murine model Tg2576: behavioural tests and β-amyloid plaques; format: in vivo, mouse; settings: 4 and 15 mg/kg i.p. daily, 6th to 13th month
# Method: In the transgenic murine model Tg2576 there is no loss of neurons, but there is neuronal deficit and accumulation of β-amyloid plaques. The production of peptides begins to increase rapidly starting from the 6th month of age, accompanied by a progressive cognitive decline. Around the 7th to 8th month, the first plaques develop, which are then diffuse at the 12th month.
# The mice were treated with […] at 4 and at 15 mg/kg i.p. daily starting from the 6th month of age up to the 13th. Between the 9th and 10th month and between the 12th and 13th month the mice were submitted to behavioural tests, at the 13th month they were sacrificed and immunohistochemical analyses were performed on brain samples to verify modulation of the β-amyloid plaques.
# [2] = quantitative PCR, vs vehicle, FIG. 35
compound,measurement,setting,value
C=C(C=O)OC(C=O)n1cnc2c(N)ncnc21 (centres unmarked) [2-[1-(6-aminopurin-9-yl)-2-oxoethoxy]prop-2-enal],ISA (mean internal surface area of the lung),mice,1153 ± 59 cm^2
same,Lm (mean interalveolar distance),mice,36.3 ± 1.1 μm
same,prolonged survival in the remaining 2 mice,[1]; long-term protocol,16 days and 25 days
same,anti-FoxP3 labelling,"[1]; short-term protocol, day 7",did not show significant differences
same,lymphocyte tissue infiltration (haematoxylin-eosin),"[1]; short-term protocol, day 7",absent
same,presence of mature macrophages,"[1]; short-term protocol, day 7",completely inhibited
same,"B and T lymphocytes (anti-B220, anti-CD3)","[1]; short-term protocol, day 7, vs controls",appear to decrease numerically
same,vasculopathy score,"[1]; short-term protocol, Ctrl=2.0±0.003, p=0.007, FIG. 28C",0.3±0.3
same,score of degree of infiltration,"[1]; short-term protocol, Ctrl=2.7±0.3, p=0.01, FIG. 28B",0.7±0.3
same,time for withdrawal of the plantar pads (thermal stimulus),"male Fischer inbred rats; 4 mg/kg intraperitoneally, to levels comparable to baseline, FIG. 7",significantly increases the time for withdrawal of the plantar pads
same,action relative to methylprednisolone acetate,male Fischer inbred rats; IMMUFLAM 4 mg/kg i.p. vs methylprednisolone acetate 5 mg/kg i.p.,more effective action
same,decrease of creatine kinase (CK) levels,"mdx mice; 0.25 mg/mouse i.p. daily for two weeks, P<0.05, FIG. 33",70%
same,centralization of the nucleus,mdx mice; anterior tibial muscles,significant reductions
same,number of degenerative fibres,mdx mice; anterior tibial muscles,significant reductions
same,area of the muscle cross sections (CSA),"mdx mice; anterior tibial muscles, vs carrier, FIG. 34",significant increase in area of the muscle cross sections
same,decrease in the number of cells positive for CD3 in muscle,mdx mice; anti-CD3 stained muscle sections,40%
same,I1-1β,mdx mice; [2],significant reduction
same,levels of mRNA typical of the Treg cells,mdx mice; [2],significant increase
same,score obtained in moving to Y (Y-maze test),Tg2576 mice,very encouraging
same,"finding and climbing onto the platform, hidden or visible (water maze test)",Tg2576 mice; vs vehicle,significantly faster than the control
